Experimental data: patent US7820624B2, “Peptide ligands” (ICH Productions Limited, priority 2003, dated 2010)

Key:
[1] = tested on: human monocyte-derived immature dendritic cells; format: cell-based; conditions: 100,000 viral particles/cell
From the text: Ad5 particles with the DC-binding peptides incorporated into the HI loop of the fibre protein were produced essentially as described previously ^12. Complementary oligonucleotides encoding the peptide sequences SHVKLNS [SEQ. ID. NO.:29] (5′ CC GGAAGCCACGTGAAGCTGAACAGCG 3′ [SEQ. ID. NO.:58] and 5′ CC GGCGCTGTTCAGCTTCACGTG GCTT 3′[SEQ. ID. NO.:59]) or APSNSTA [SEQ. ID. NO.:15] (5′ CC GGAGCCCCCAGCAACAGCACCGCCG 3′ [SEQ. ID. NO.:61] and 5′ CC GGCGGCGGTGCTGTTGCTGGG GGCT 3′ [SEQ. ID. NO.:62]) were synthesized (Operon Technologies, Alameda Calif. U.S.A.). The oligo pairs were then kinased, annealed, and ligated into the unique BspE1 site of pDV137 ^12, an expression construct encoding an Ad5 fibre protein with a double point mutant (KO1) which blocks CAR binding and a linker/restriction site in the HI loop, to create pDV178 (SHVKLNS) and pDV179 (APSNSTA). Following sequence confirmation, the plasmids were used to trans-complement the fibre-deleted vector Ad5.GFP.δF^18 by transient transfection into 293 cells as described ^19. Viral particles were purified by freeze/thaw lysis and CsCl gradient centrifugation and dialyzed into 40 mM TRIS-pH 8.1/0.9% NaCl/10% glycerol and stored at −80° C. Virus was quantified by protein assay (BioRad, Hercules Calif., U.S.A.) against BSA standards and using the relation 1 μg viral protein=4×10^9 viral particles.
Retargeted adenoviruses carrying a peptide A or B were used for the transduction experiments described below. Wild type adenovirus type 5 and type 5 adenovirus having a KO1 fibre, all supplied by Dr Dan von Seggern, and as described in Nicklin 2001 Mol Ther 2001 Dec.; 4(6):534-42), were used as controls.
(§1) Day 6 dendritic cells (see Example 1(v) above), or mouse bone marrow derived dendritic cells or mouse Sca1+ve stem cells, see (i) and (ii) above, were plated at 5×10^4 cells per well in a 48 well plate in 500 μl complete medium and allowed to settle for 3 hours at 37° C. Transductions were carried out in complete media, with virus being added at 100,000 viral particles/cell for 24 hours. Cells were harvested by scraping, spun down at 650 g (2000 rpm) for 5 min, resuspended in 300 μl PBS, and kept on ice before analysis. Viral transduction as determined by percentage of GFP positive cells was measured by FACS analysis. To measure percentage viability, 10 μl of 7-amino-actinomycin D (7AAD; Sigma, Poole, Dorset) was added immediately prior to analysis. Viral transduction of macrophages was carried out at 10,000 particles/cell in medium containing 2.5% FCS. For other cell types, cells were seeded overnight at 5×10^4 cells per well in 24-well plates in the appropriate media. Adenovirus was added in OptiMEM at 10,000 viral particles/cell, 1 ml per well in triplicate and incubated for 24 h at 37° C. Cells were then washed twice in PBS, trypsinised, triplicate wells pooled, spun down at 350×g for 5 min and resuspended in 300 μl PBS before analysis by flow cytometry where cell viability was to be measured, 10 μl 7AAD was added just prior to analysis.
Cells were pooled from three separate transduction experiments for the calculation of results.

[2] = tested on: human monocyte-derived primary macrophages; assay: Adenoviral transduction of primary macrophages; format: cell-based; conditions: 10,000 viral particles/cell in 2.5% serum
Method: as §1
10 mls of peripheral blood were diluted 1:1 with HBSS then layered on Lymphoprep (Nycomed), spun at 750 g for 30 min and purified […] were isolated from the interface. Excess Lymphoprep was removed by spinning cells down at 250 g for 10 min and any platelets present were removed by washing in HBSS twice, spinning the cells at 1200 rpm for 10 min each time. Monocytes were then isolated using MACs CD14 microbeads as described in the manufacturer's protocol. The mononuclear cells were plated into a […] flask in 10% FCS, RPMI for 1-2 hours (1 flask per 10 ml blood) before removing the supernatant and adding fresh 10% FCS, RPMI+10 ng/ml MCSF (macrophage colony stimulating factor). Half the medium was replaced with fresh 10% FCS, RPMI+MCSF (10 ng/ml) after 48 hours and the cells were used at day 6, harvesting by scraping the cells from the well.
Viral transduction was carried out at 10,000 particles/cell in medium containing 2.5% FCS. Viral transduction as determined by percentage of GFP positive cells was measured by FACS analysis. Cells were pooled from three separate transduction experiments for the calculation of results.

HepG2 cells = assay: Adenoviral transduction of HepG2 cells; format: cell-based, human; conditions: 10,000 particles per cell in OptiMEM; listed as peptide A
Method: as §1, with “For other cell types, cells were seeded overnight at 5×10^4 cells per well in 24-well plates in the appropriate media. Adenovirus was added in OptiMEM at 10,000 viral particles/cell, 1 ml per well in triplicate and incubated for 24 h at 37° C.” left out
For transduction of these other cell types, cells were seeded overnight at 5×10^4 cells per well in 24 well plates in the appropriate media. […] Where cell viability was to be measured, 10 μl 7-amino-actinomycin D (7AAD; Sigma, Poole, Dorset) was added just prior to analysis. […]

[3] = tested on: primary mouse dendritic cells; assay: Adenoviral transduction of mouse dendritic cells; format: cell-based; conditions: bone marrow derived DCs
Method: Mouse dendritic cells were prepared from whole bone marrow flushed from the marrow cavities of the femur and tibia of 5-7 week old A/J mice and cultured in Hepes buffered RPMI+Glutamax (InVitrogen, Paisley, U. K.) supplemented with 10% FCS, penicillin/streptomycin and 20 ng/ml recombinant GM-CSF. Cytokines were added to the same concentration on day 3 and the dendritic cells isolated from the floating cell fraction by MACs CD11c microbeads (Miltenyi Biotec, Bisley, U. K.) on day 6.
as §1, with “To measure percentage viability, 10 μl of 7-amino-actinomycin D (7AAD; Sigma, Poole, Dorset) was added immediately prior to analysis. Viral transduction of macrophages was carried out at 10,000 particles/cell in medium containing 2.5% FCS. For other cell types, cells were seeded overnight at 5×10^4 cells per well in 24-well plates in the appropriate media. Adenovirus was added in OptiMEM at 10,000 viral particles/cell, 1 ml per well in triplicate and incubated for 24 h at 37° C.” left out

Substance: SHVKLNS (Synthetic peptide binding to dendritic cells)
- Transduction (% GFP positive cells), donor A ([1]; complete medium, 24 hours, donor A): 64.2%
- Transduction (% GFP positive cells), donor B ([1]; complete medium, 24 hours, donor B): 78.9%
- Percentage cell death, donor A ([1]; donor A, 7AAD): (12.0) %
- Percentage cell death, donor B ([1]; donor B, 7AAD): (13.3) %
- Transduction, % cells transduced ([2]; listed as A): 67.6%
- Transduction, % cells transduced ([2]; listed as peptide A): 67.6%
- Transduction, % cells transduced (HepG2 cells): 88.5%
- Transduction efficiency [3]: 71.7%
